Numbers after ± are expanded uncertainties.
Test: cn = amount concentration of the nth substance listed, in mol/dm3
Details: 101 kPa, Liquid, Alternating current cell with electrodes

With `CCCCCCCCCCCCn1cc[n+](C)c1.[Br-]` [1-dodecyl-3-methylimidazolium bromide] + O the electrical conductivity (283.15 K, c1 = 0.0006629) was 0.00432 ± 0.0026 S/m, the electrical conductivity (283.15 K, c1 = 0.001064) was 0.00695 ± 0.0026 S/m and the electrical conductivity (283.15 K, c1 = 0.001497) was 0.0098 ± 0.0026 S/m. For the same compound, the electrical conductivity (283.15 K, c1 = 0.00184) was 0.012 ± 0.0025 S/m, the electrical conductivity (283.15 K, c1 = 0.002146) was 0.014 ± 0.002 S/m and the electrical conductivity (283.15 K, c1 = 0.00249) was 0.0158 ± 0.0018 S/m. For the same compound, the electrical conductivity (283.15 K, c1 = 0.002909) was 0.0168 ± 0.00079 S/m, the electrical conductivity (283.15 K, c1 = 0.003361) was 0.0175 ± 0.00063 S/m and the electrical conductivity (283.15 K, c1 = 0.003884) was 0.0183 ± 0.0006 S/m. It also gave an electrical conductivity (283.15 K, c1 = 0.00448) of 0.0192 ± 0.00058 S/m, an electrical conductivity (283.15 K, c1 = 0.004998) of 0.0199 ± 0.00049 S/m and an electrical conductivity (283.15 K, c1 = 0.005625) of 0.0206 ± 0.00045 S/m. It also gave an electrical conductivity (288.15 K, c1 = 0.0006629) of 0.00491 ± 0.003 S/m, an electrical conductivity (288.15 K, c1 = 0.001064) of 0.00789 ± 0.003 S/m and an electrical conductivity (288.15 K, c1 = 0.001497) of 0.0111 ± 0.0029 S/m. It also gave an electrical conductivity (288.15 K, c1 = 0.00184) of 0.0136 ± 0.0028 S/m, an electrical conductivity (288.15 K, c1 = 0.002146) of 0.0158 ± 0.0022 S/m and an electrical conductivity (288.15 K, c1 = 0.00249) of 0.0178 ± 0.0021 S/m. For the same compound, the electrical conductivity (288.15 K, c1 = 0.002909) was 0.019 ± 0.00091 S/m, the electrical conductivity (288.15 K, c1 = 0.003361) was 0.0198 ± 0.00059 S/m and the electrical conductivity (288.15 K, c1 = 0.003884) was 0.0204 ± 0.0006 S/m. For the same compound, the electrical conductivity (288.15 K, c1 = 0.00448) was 0.0215 ± 0.00074 S/m, the electrical conductivity (288.15 K, c1 = 0.004998) was 0.0224 ± 0.0007 S/m and the electrical conductivity (288.15 K, c1 = 0.005625) was 0.0236 ± 0.0008 S/m. The electrical conductivity (293.15 K, c1 = 0.0006629) was 0.0055 ± 0.0034 S/m, the electrical conductivity (293.15 K, c1 = 0.001064) was 0.00894 ± 0.0033 S/m and the electrical conductivity (293.15 K, c1 = 0.001497) was 0.0125 ± 0.0033 S/m. It also gave an electrical conductivity (293.15 K, c1 = 0.00184) of 0.0153 ± 0.0031 S/m, an electrical conductivity (293.15 K, c1 = 0.002146) of 0.0178 ± 0.0024 S/m and an electrical conductivity (293.15 K, c1 = 0.00249) of 0.0201 ± 0.0023 S/m. It also gave an electrical conductivity (293.15 K, c1 = 0.002909) of 0.0212 ± 0.00097 S/m, an electrical conductivity (293.15 K, c1 = 0.003361) of 0.0222 ± 0.00087 S/m and an electrical conductivity (293.15 K, c1 = 0.003884) of 0.0233 ± 0.0008 S/m. It also gave an electrical conductivity (293.15 K, c1 = 0.00448) of 0.0244 ± 0.00081 S/m, an electrical conductivity (293.15 K, c1 = 0.004998) of 0.0256 ± 0.00085 S/m and an electrical conductivity (293.15 K, c1 = 0.005625) of 0.0269 ± 0.00091 S/m. It also gave an electrical conductivity (298.15 K, c1 = 0.0006629) of 0.00613 ± 0.0038 S/m, an electrical conductivity (298.15 K, c1 = 0.001064) of 0.00994 ± 0.0037 S/m and an electrical conductivity (298.15 K, c1 = 0.001497) of 0.0139 ± 0.0036 S/m. The electrical conductivity (298.15 K, c1 = 0.00184) was 0.017 ± 0.0035 S/m, the electrical conductivity (298.15 K, c1 = 0.002146) was 0.0198 ± 0.0028 S/m and the electrical conductivity (298.15 K, c1 = 0.00249) was 0.0222 ± 0.0027 S/m. The electrical conductivity (298.15 K, c1 = 0.002909) was 0.0239 ± 0.0013 S/m, the electrical conductivity (298.15 K, c1 = 0.003361) was 0.0251 ± 0.00099 S/m and the electrical conductivity (298.15 K, c1 = 0.003884) was 0.0264 ± 0.00098 S/m. The electrical conductivity (298.15 K, c1 = 0.00448) was 0.0279 ± 0.00099 S/m, the electrical conductivity (298.15 K, c1 = 0.004998) was 0.0291 ± 0.00092 S/m and the electrical conductivity (298.15 K, c1 = 0.005625) was 0.0305 ± 0.001 S/m. The electrical conductivity (303.15 K, c1 = 0.0006629) was 0.00676 ± 0.0042 S/m, the electrical conductivity (303.15 K, c1 = 0.001064) was 0.011 ± 0.0041 S/m and the electrical conductivity (303.15 K, c1 = 0.001497) was 0.0154 ± 0.0039 S/m. It also gave an electrical conductivity (303.15 K, c1 = 0.00184) of 0.0188 ± 0.0039 S/m, an electrical conductivity (303.15 K, c1 = 0.002146) of 0.0216 ± 0.0033 S/m and an electrical conductivity (303.15 K, c1 = 0.00249) of 0.0247 ± 0.0032 S/m. For the same compound, the electrical conductivity (303.15 K, c1 = 0.002909) was 0.027 ± 0.0017 S/m, the electrical conductivity (303.15 K, c1 = 0.003361) was 0.0284 ± 0.0012 S/m and the electrical conductivity (303.15 K, c1 = 0.003884) was 0.0299 ± 0.0011 S/m. The electrical conductivity (303.15 K, c1 = 0.00448) was 0.0315 ± 0.0011 S/m, the electrical conductivity (303.15 K, c1 = 0.004998) was 0.033 ± 0.0011 S/m and the electrical conductivity (303.15 K, c1 = 0.005625) was 0.0347 ± 0.0012 S/m. The electrical conductivity (308.15 K, c1 = 0.0006629) was 0.00742 ± 0.0046 S/m, the electrical conductivity (308.15 K, c1 = 0.001064) was 0.0121 ± 0.0045 S/m and the electrical conductivity (308.15 K, c1 = 0.001497) was 0.0169 ± 0.0043 S/m. It also gave an electrical conductivity (308.15 K, c1 = 0.00184) of 0.0201 ± 0.0043 S/m, an electrical conductivity (308.15 K, c1 = 0.002146) of 0.0237 ± 0.0038 S/m and an electrical conductivity (308.15 K, c1 = 0.00249) of 0.0273 ± 0.0039 S/m. The electrical conductivity (308.15 K, c1 = 0.002909) was 0.0304 ± 0.0022 S/m, the electrical conductivity (308.15 K, c1 = 0.003361) was 0.0321 ± 0.0014 S/m and the electrical conductivity (308.15 K, c1 = 0.003884) was 0.0338 ± 0.0013 S/m. For the same compound, the electrical conductivity (308.15 K, c1 = 0.00448) was 0.0358 ± 0.0013 S/m, the electrical conductivity (308.15 K, c1 = 0.004998) was 0.0374 ± 0.0013 S/m and the electrical conductivity (308.15 K, c1 = 0.005625) was 0.0394 ± 0.0013 S/m.

— the NIST ThermoML archive (doi:10.1016/j.fluid.2014.01.038)
